Reference: ChEMBL document CHEMBL4665802, “Design, Synthesis, and Structure-Activity Relationships of Indoline-Based Kelch-like ECH-Associated Protein 1-Nuclear Factor (Erythroid-Derived 2)-Like 2 (Keap1-Nrf2) Protein-Protein Interaction Inhibitors” (J Med Chem, 2020)
Calls of active or inactive are those of the source. No cut-off for these calls is given here.

Key:
[1] = MRT (0 to infinity) in rat at 5 mg/kg, iv by LC-MS/MS analysis; type: ADME, organism-based; conditions: in vivo
[2] = molecular target: T1, KEAP1/NRF2 (Rattus norvegicus) (UniProt O54968+P57790); test: Inhibition of Keap1-Nrf2 protein-protein interaction in rat H9c2 cells assessed as upregulation of HO1 expression at 10 uM incubated up to 24 hrs by Western blot; type: cell-based; conditions: time hrs <=24
H9c2 [3] = test: Antioxidant activity against LPS-induced injury in rat H9c2 cells assessed as increase in GSH/GSSG ratio at 0.1 to 10 uM pretreated for 12 hrs followed by LPS addition measured after 12 hrs; type: functional, cell-based; conditions: dose microM 0.1-10, time 24.0 hrs
Mus musculus [4] = test: Antioxidant activity against LPS-induced injury in C57BL/6 mouse assessed as reduction in ROS levels at 10 to 40 mg/kg, ip qd administered for 3 days prior to LPS stimulation and measured after 12 hrs by H2DCFDA probe based flow cytometry; type: functional, organism-based; conditions: dose mg/kg 10-40, time 3.5 day
Mus musculus [5] = test: Upregulation of Nrf2 protein levels in LPS-stimulated C57BL/6 mouse model at 10 to 40 mg/kg, ip qd administered for 3 days prior to LPS stimulation and measured after 12 hrs by Western blot analysis; type: functional, organism-based; conditions: dose mg/kg 10-40, time 3.5 day
CYP3A4 = CYP3A4 (Homo sapiens, UniProt P08684); test: Inhibition of CYP3A4 (unknown origin) at 10 uM using […] as substrate preincubated for 5 mins followed by NADPH addition and measured after 20 mins by LC-MS/MS analysis relative to control; type: ADME
[6] = Permeability of the compound at pH 7.4 incubated for 4 hrs by PAMPA; type: ADME; conditions: read-out: permeability
[7] = molecular target: T1, KEAP1/NRF2 (Rattus norvegicus); test: Inhibition of Keap1-Nrf2 protein-protein interaction in rat H9c2 cells assessed as upregulation of HO1 mRNA expression incubated for 12 hrs by Trizol reagent based qRT-PCR analysis; type: cell-based; conditions: dose microM 0.1-10, time 12.0 hrs
Mus musculus [8] = test: Upregulation of GCLM expression in LPS-stimulated C57BL/6 mouse model of sepsis at 10 to 40 mg/kg, ip qd administered for 3 days prior to LPS stimulation and measured after 12 hrs by Western blot analysis; type: functional, organism-based; conditions: dose mg/kg 10-40, time 3.5 day
[9] = Intrinsic clearance in human liver microsome at 1 uM preincubated for 5 mins followed by NADPH addition and measured after 45 mins by LC-MS/MS analysis; type: ADME; conditions: microsomes, 0.75 h
Mus musculus [10] = test: Cardioprotective activity in LPS-stimulated sepsis in C57BL/6 mouse assessed as reduction in heart tissue inflammation at 10 mg/kg, ip qd administered for 3 days prior to LPS stimulation and measured after 12 hrs by hematoxylin and eosin staining based microscopy; type: functional, organism-based; conditions: time 3.5 day
Mus musculus [11] = test: Antiinflammatory activity in LPS-stimulated sepsis in C57BL/6 mouse assessed as decrease in TNFalpha levels at 10 mg/kg, ip qd administered for 3 days prior to LPS stimulation and measured after 12 hrs by ELISA; type: functional, organism-based; conditions: time 3.5 day
[12] = molecular target: T1, KEAP1/NRF2 (Rattus norvegicus); test: Inhibition of Keap1-Nrf2 protein-protein interaction in rat H9c2 cells assessed as upregulation of HO1 expression incubated for 12 hrs by Western blot analysis; type: cell-based; conditions: dose microM 0.1-10, time 12.0 hrs
[13] = molecular target: T1, KEAP1/NRF2 (Rattus norvegicus); test: Inhibition of Keap1-Nrf2 protein-protein interaction in rat H9c2 cells assessed as upregulation of NQO1 expression at 10 uM incubated up to 24 hrs by Western blot; type: cell-based; conditions: time hrs <=24
H9c2 [14] = test: Antiinflammatory activity against LPS-induced sepsis in rat H9c2 cells assessed as decrease in secretion of IL-6 at 1 to 10 uM pretreated for 12 hrs followed by LPS addition measured after 12 hrs by sandwich ELISA; type: functional, cell-based; conditions: dose microM 1-10, time 24.0 hrs
CYP1A2 = molecular target: T2, CYP1A2 (Homo sapiens, UniProt P05177); test: Inhibition of CYP1A2 (unknown origin) at 10 uM using 7-ethoxycoumarin as substrate preincubated for 5 mins followed by NADPH addition and measured after 20 mins by LC-MS/MS analysis relative to control; type: ADME; conditions: probe 7-ethoxycoumarin
T2 sequence (P05177 whole entry): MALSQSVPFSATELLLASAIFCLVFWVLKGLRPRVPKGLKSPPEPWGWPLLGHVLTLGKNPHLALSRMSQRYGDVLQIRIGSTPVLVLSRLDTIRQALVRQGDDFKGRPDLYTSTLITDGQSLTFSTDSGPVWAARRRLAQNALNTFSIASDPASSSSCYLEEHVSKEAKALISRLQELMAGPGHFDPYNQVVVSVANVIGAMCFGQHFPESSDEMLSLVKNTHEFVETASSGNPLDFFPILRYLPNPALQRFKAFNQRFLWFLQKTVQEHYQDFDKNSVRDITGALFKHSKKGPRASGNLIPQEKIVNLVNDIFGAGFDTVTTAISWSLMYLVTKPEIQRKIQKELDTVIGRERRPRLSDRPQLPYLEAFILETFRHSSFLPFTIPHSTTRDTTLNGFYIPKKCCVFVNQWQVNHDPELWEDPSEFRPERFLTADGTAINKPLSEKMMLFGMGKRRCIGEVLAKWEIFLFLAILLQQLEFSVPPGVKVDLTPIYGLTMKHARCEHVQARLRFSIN

[15] = Apparent clearance in rat at 5 mg/kg, iv by LC-MS/MS analysis; type: ADME, organism-based; conditions: in vivo
CYP2C19 = CYP2C19 (Homo sapiens, UniProt P33261); test: Inhibition of CYP2C19 (unknown origin) at 10 uM using omeprazole as substrate preincubated for 5 mins followed by NADPH addition and measured after 20 mins by LC-MS/MS analysis relative to control; type: ADME; conditions: probe omeprazole
H9c2 [16] = test: Antioxidant activity against LPS-induced injury in rat H9c2 cells assessed as decrease in ROS level at 10 uM pretreated for 12 hrs followed by LPS addition measured after 12 hrs by H2DCFDA probe based flow cytometry; type: functional, cell-based; conditions: time 24.0 hrs
Mus musculus [17] = test: Upregulation of NQO1 expression in LPS-stimulated C57BL/6 mouse model of sepsis at 10 to 40 mg/kg, ip qd administered for 3 days prior to LPS stimulation and measured after 12 hrs by Western blot analysis; type: functional, organism-based; conditions: dose mg/kg 10-40, time 3.5 day
[18] = Metabolic stability in human liver microsome assessed as parent compound remaining at 1 uM preincubated for 5 mins followed by NADPH addition and measured after 45 mins by LC-MS/MS analysis; type: ADME; conditions: liver microsomes, time 50 min, read-out: Stabilty
[19] = AUC (0 to t) in rat at 5 mg/kg, iv by LC-MS/MS analysis; type: ADME, organism-based; set-up: dose 5 mg/kg; conditions: in vivo
H9c2 [20] = test: Upregulation of Nrf2 mRNA expression in rat H9c2 cells at 10 uM incubated for 4 to 24 hrs by Trizol reagent based qRT-PCR analysis; type: functional, cell-based; conditions: time hrs 4-24
H9c2 [21] = test: Upregulation of Nrf2 protein levels in rat H9c2 cells incubated for 12 hrs by Western blot analysis; type: functional, cell-based; conditions: dose microM 0.1-10, time 12.0 hrs
[22] = molecular target: T1, KEAP1/NRF2 (Rattus norvegicus); test: Inhibition of Keap1-Nrf2 protein-protein interaction in rat H9c2 cells assessed as upregulation of NQO1 expression incubated for 12 hrs by Western blot analysis; type: cell-based; conditions: dose microM 0.1-10, time 12.0 hrs
CYP2D6 = CYP2D6 (Homo sapiens, UniProt P10635); test: Inhibition of CYP2D6 (unknown origin) at 10 uM using promethazine as substrate preincubated for 5 mins followed by NADPH addition and measured after 20 mins by LC-MS/MS analysis relative to control; type: ADME; conditions: probe promethazine
CYP2D6, sequence (P10635 whole entry): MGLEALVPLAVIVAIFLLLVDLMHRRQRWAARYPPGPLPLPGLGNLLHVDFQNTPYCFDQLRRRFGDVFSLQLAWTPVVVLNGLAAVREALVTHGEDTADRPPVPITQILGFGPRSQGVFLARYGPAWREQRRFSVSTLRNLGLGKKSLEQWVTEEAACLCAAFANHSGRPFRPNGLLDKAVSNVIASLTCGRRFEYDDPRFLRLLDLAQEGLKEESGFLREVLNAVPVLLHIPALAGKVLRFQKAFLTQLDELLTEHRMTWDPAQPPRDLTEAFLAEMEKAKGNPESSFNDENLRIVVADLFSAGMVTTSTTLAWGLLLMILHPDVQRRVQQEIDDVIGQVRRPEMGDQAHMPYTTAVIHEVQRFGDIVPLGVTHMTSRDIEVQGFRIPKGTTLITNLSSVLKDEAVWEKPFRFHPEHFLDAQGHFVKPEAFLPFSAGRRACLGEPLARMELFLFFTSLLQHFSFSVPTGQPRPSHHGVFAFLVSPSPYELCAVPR

CYP3A4, sequence (P08684 whole entry): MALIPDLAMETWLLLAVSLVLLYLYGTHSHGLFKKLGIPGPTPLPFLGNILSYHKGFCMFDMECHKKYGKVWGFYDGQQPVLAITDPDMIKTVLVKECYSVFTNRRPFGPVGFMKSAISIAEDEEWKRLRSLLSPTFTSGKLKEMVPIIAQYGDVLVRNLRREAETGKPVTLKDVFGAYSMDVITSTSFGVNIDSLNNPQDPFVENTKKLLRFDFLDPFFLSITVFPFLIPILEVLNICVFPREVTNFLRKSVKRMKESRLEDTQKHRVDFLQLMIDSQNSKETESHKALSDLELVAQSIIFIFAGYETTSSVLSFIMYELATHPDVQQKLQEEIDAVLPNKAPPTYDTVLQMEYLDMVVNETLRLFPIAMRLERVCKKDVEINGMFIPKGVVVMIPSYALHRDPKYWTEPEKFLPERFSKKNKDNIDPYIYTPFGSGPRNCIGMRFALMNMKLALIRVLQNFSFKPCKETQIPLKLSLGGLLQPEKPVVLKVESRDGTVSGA
CYP2C19, sequence (P33261 whole entry): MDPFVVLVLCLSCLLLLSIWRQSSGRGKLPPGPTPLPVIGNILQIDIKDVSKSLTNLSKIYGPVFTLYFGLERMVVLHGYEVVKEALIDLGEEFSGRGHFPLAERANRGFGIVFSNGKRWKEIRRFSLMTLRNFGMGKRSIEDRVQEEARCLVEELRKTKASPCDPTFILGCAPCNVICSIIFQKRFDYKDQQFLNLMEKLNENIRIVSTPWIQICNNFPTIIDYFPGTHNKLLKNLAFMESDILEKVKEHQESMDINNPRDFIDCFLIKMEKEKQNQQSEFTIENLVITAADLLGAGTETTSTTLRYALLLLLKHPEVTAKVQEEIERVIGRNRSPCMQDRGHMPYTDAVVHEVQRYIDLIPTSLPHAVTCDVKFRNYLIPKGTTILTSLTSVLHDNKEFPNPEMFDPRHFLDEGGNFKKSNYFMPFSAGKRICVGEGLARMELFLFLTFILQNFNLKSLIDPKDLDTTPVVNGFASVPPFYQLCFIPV

Compound: COc1ccc(S(=O)(=O)NC(=O)CN(c2cccc3c2CCN3C(C(=O)NS(=O)(=O)c2ccc(C)cc2OC)c2cccc(OC)c2)S(=O)(=O)c2ccc(OC)cc2)cc1 (stereo unspecified)
- MRT inf [1]: 1.1 h
- inhibition [2]: Active
- Activity (H9c2 [3]): Active
- Activity (Mus musculus [4]): Active
- Activity (Mus musculus [5]): Active
- inhibition at 20 min, 10 µM (CYP3A4): 46.9%
- Papp at 4 h [6]: 5.27 ×10⁻⁶ cm/s
- inhibition [7]: Dose-dependent effect
- Activity (Mus musculus [8]): Active
- CLH [9]: 11.4 mL/min/kg
- Activity (Mus musculus [10]): Active
- Activity (Mus musculus [11]): Active
- inhibition [12]: Dose-dependent effect
- inhibition [13]: Active
- Activity (H9c2 [14]): Active
- inhibition at 20 min, 10 µM (CYP1A2): 8.75%
- clearance [15]: 1.83 mL/min/kg
- inhibition at 20 min, 10 µM (CYP2C19): 19.8%
- Activity (H9c2 [16]): Active
- Activity (Mus musculus [17]): Active
- remaining at 0.75 h, 1 µM [18]: 74.4%
- AUC(0-t) [19]: 47000 ng·h/mL
- Activity (H9c2 [20]): Active
- Activity (H9c2 [21]): Dose-dependent effect
- inhibition [22]: Dose-dependent effect
- inhibition at 20 min, 10 µM (CYP2D6): 19.9%
